Source: the NIST ThermoML archive (doi:10.1021/acs.jced.7b01053)
Numbers after ± are expanded uncertainties.

Assay: mn = molality of the nth substance listed, in mol/kg
Conditions: 293 K, 100 kPa, Liquid, Alternating current cell with electrodes

**Q.** Which results are given for `CCCCC(=O)[O-].[NH3+]CCO` [2-hydroxy ethylammonium pentanoate] + O?
**A.** electrical conductivity (m1 = 0.01913): 0.108 ± 0.011 S/m; electrical conductivity (m1 = 0.01918): 0.068 ± 0.014 S/m; electrical conductivity (m1 = 0.03718): 0.19 ± 0.015 S/m; electrical conductivity (m1 = 0.03781): 0.126 ± 0.013 S/m; electrical conductivity (m1 = 0.05621): 0.26 ± 0.019 S/m; electrical conductivity (m1 = 0.05801): 0.176 ± 0.014 S/m; electrical conductivity (m1 = 0.07457): 0.309 ± 0.047 S/m; electrical conductivity (m1 = 0.07759): 0.244 ± 0.046 S/m; electrical conductivity (m1 = 0.09498): 0.365 ± 0.04 S/m; electrical conductivity (m1 = 0.09926): 0.296 ± 0.02 S/m; electrical conductivity (m1 = 0.1135): 0.412 ± 0.029 S/m; electrical conductivity (m1 = 0.1187): 0.344 ± 0.024 S/m; electrical conductivity (m1 = 0.1336): 0.48 ± 0.035 S/m; electrical conductivity (m1 = 0.1402): 0.393 ± 0.028 S/m; electrical conductivity (m1 = 0.152): 0.526 ± 0.039 S/m; electrical conductivity (m1 = 0.1594): 0.439 ± 0.031 S/m; electrical conductivity (m1 = 0.1718): 0.578 ± 0.044 S/m; electrical conductivity (m1 = 0.1796): 0.483 ± 0.035 S/m; electrical conductivity (m1 = 0.1899): 0.625 ± 0.049 S/m; electrical conductivity (m1 = 0.1981): 0.523 ± 0.039 S/m; electrical conductivity (m1 = 0.2067): 0.661 ± 0.055 S/m; electrical conductivity (m1 = 0.2174): 0.664 ± 0.053 S/m; electrical conductivity (m1 = 0.224): 0.701 ± 0.058 S/m; electrical conductivity (m1 = 0.2348): 0.597 ± 0.046 S/m; electrical conductivity (m1 = 0.24): 0.739 ± 0.062 S/m; electrical conductivity (m1 = 0.2529): 0.637 ± 0.05 S/m; electrical conductivity (m1 = 0.2565): 0.776 ± 0.066 S/m; electrical conductivity (m1 = 0.2697): 0.669 ± 0.13 S/m; electrical conductivity (m1 = 0.272): 0.809 ± 0.14 S/m; electrical conductivity (m1 = 0.2867): 0.704 ± 0.058 S/m; electrical conductivity (m1 = 0.2875): 0.844 ± 0.074 S/m; electrical conductivity (m1 = 0.302): 0.875 ± 0.078 S/m; electrical conductivity (m1 = 0.3024): 0.734 ± 0.061 S/m; electrical conductivity (m1 = 0.3165): 0.904 ± 0.083 S/m; electrical conductivity (m1 = 0.3181): 0.759 ± 0.065 S/m; electrical conductivity (m1 = 0.3299): 0.93 ± 0.13 S/m; electrical conductivity (m1 = 0.3329): 0.786 ± 0.068 S/m; electrical conductivity (m1 = 0.3434): 0.957 ± 0.09 S/m; electrical conductivity (m1 = 0.3474): 0.812 ± 0.071 S/m; electrical conductivity (m1 = 0.3561): 0.983 ± 0.093 S/m; electrical conductivity (m1 = 0.3608): 0.832 ± 0.073 S/m; electrical conductivity (m1 = 0.3685): 1.01 ± 0.097 S/m; electrical conductivity (m1 = 0.3744): 0.855 ± 0.076 S/m; electrical conductivity (m1 = 0.38): 1.03 ± 0.1 S/m; electrical conductivity (m1 = 0.3866): 0.876 ± 0.078 S/m; electrical conductivity (m1 = 0.3914): 1.05 ± 0.1 S/m; electrical conductivity (m1 = 0.3988): 0.895 ± 0.081 S/m; electrical conductivity (m1 = 0.402): 1.07 ± 0.11 S/m; electrical conductivity (m1 = 0.4101): 0.917 ± 0.084 S/m; electrical conductivity (m1 = 0.4126): 1.09 ± 0.11 S/m; electrical conductivity (m1 = 0.4215): 0.925 ± 0.085 S/m; electrical conductivity (m1 = 0.4221): 1.11 ± 0.11 S/m; electrical conductivity (m1 = 0.4316): 1.13 ± 0.11 S/m; electrical conductivity (m1 = 0.4318): 0.94 ± 0.087 S/m; electrical conductivity (m1 = 0.4404): 1.14 ± 0.12 S/m; electrical conductivity (m1 = 0.4421): 0.957 ± 0.089 S/m; electrical conductivity (m1 = 0.4517): 0.971 ± 0.091 S/m

**Q.** Which results are given for `CCC(=O)[O-].OCC[NH2+]CCO` [bis(2-hydroxyethyl)ammonium propanoate] + O?
**A.** electrical conductivity (m1 = 0.01926): 0.109 ± 0.011 S/m; electrical conductivity (m1 = 0.01974): 0.104 ± 0.012 S/m; electrical conductivity (m1 = 0.03749): 0.196 ± 0.015 S/m; electrical conductivity (m1 = 0.0377): 0.192 ± 0.015 S/m; electrical conductivity (m1 = 0.05722): 0.296 ± 0.021 S/m; electrical conductivity (m1 = 0.05727): 0.296 ± 0.021 S/m; electrical conductivity (m1 = 0.07596): 0.375 ± 0.026 S/m; electrical conductivity (m1 = 0.0761): 0.365 ± 0.026 S/m; electrical conductivity (m1 = 0.0957): 0.456 ± 0.033 S/m; electrical conductivity (m1 = 0.09617): 0.447 ± 0.032 S/m; electrical conductivity (m1 = 0.1142): 0.528 ± 0.04 S/m; electrical conductivity (m1 = 0.1152): 0.519 ± 0.039 S/m; electrical conductivity (m1 = 0.1335): 0.601 ± 0.047 S/m; electrical conductivity (m1 = 0.135): 0.596 ± 0.047 S/m; electrical conductivity (m1 = 0.1519): 0.67 ± 0.054 S/m; electrical conductivity (m1 = 0.1542): 0.668 ± 0.054 S/m; electrical conductivity (m1 = 0.1707): 0.737 ± 0.062 S/m; electrical conductivity (m1 = 0.1718): 0.725 ± 0.06 S/m; electrical conductivity (m1 = 0.1845): 0.785 ± 0.067 S/m; electrical conductivity (m1 = 0.1898): 0.798 ± 0.069 S/m; electrical conductivity (m1 = 0.2029): 0.849 ± 0.075 S/m; electrical conductivity (m1 = 0.2071): 0.875 ± 0.078 S/m; electrical conductivity (m1 = 0.22): 0.901 ± 0.082 S/m; electrical conductivity (m1 = 0.2243): 0.942 ± 0.087 S/m; electrical conductivity (m1 = 0.2375): 0.955 ± 0.093 S/m; electrical conductivity (m1 = 0.2406): 0.997 ± 0.098 S/m; electrical conductivity (m1 = 0.2535): 1 ± 0.095 S/m; electrical conductivity (m1 = 0.2571): 1.03 ± 0.099 S/m; electrical conductivity (m1 = 0.2696): 1.05 ± 0.1 S/m; electrical conductivity (m1 = 0.2722): 1.08 ± 0.11 S/m; electrical conductivity (m1 = 0.285): 1.09 ± 0.11 S/m; electrical conductivity (m1 = 0.2875): 1.12 ± 0.12 S/m; electrical conductivity (m1 = 0.3002): 1.13 ± 0.11 S/m; electrical conductivity (m1 = 0.3019): 1.17 ± 0.12 S/m; electrical conductivity (m1 = 0.3142): 1.17 ± 0.12 S/m; electrical conductivity (m1 = 0.3162): 1.16 ± 0.12 S/m; electrical conductivity (m1 = 0.3282): 1.21 ± 0.13 S/m; electrical conductivity (m1 = 0.3293): 1.23 ± 0.13 S/m; electrical conductivity (m1 = 0.3413): 1.24 ± 0.13 S/m; electrical conductivity (m1 = 0.3424): 1.27 ± 0.14 S/m; electrical conductivity (m1 = 0.3538): 1.27 ± 0.14 S/m; electrical conductivity (m1 = 0.3545): 1.31 ± 0.14 S/m; electrical conductivity (m1 = 0.3658): 1.3 ± 0.14 S/m; electrical conductivity (m1 = 0.366): 1.35 ± 0.15 S/m; electrical conductivity (m1 = 0.3774): 1.39 ± 0.16 S/m; electrical conductivity (m1 = 0.3775): 1.32 ± 0.14 S/m; electrical conductivity (m1 = 0.3881): 1.41 ± 0.16 S/m; electrical conductivity (m1 = 0.3884): 1.36 ± 0.15 S/m; electrical conductivity (m1 = 0.3986): 1.44 ± 0.17 S/m; electrical conductivity (m1 = 0.3992): 1.39 ± 0.16 S/m; electrical conductivity (m1 = 0.4083): 1.47 ± 0.17 S/m; electrical conductivity (m1 = 0.4092): 1.41 ± 0.16 S/m; electrical conductivity (m1 = 0.418): 1.5 ± 0.18 S/m; electrical conductivity (m1 = 0.419): 1.44 ± 0.17 S/m; electrical conductivity (m1 = 0.4271): 1.53 ± 0.18 S/m; electrical conductivity (m1 = 0.4283): 1.46 ± 0.17 S/m; electrical conductivity (m1 = 0.4361): 1.55 ± 0.19 S/m; electrical conductivity (m1 = 0.4372): 1.49 ± 0.17 S/m; electrical conductivity (m1 = 0.4445): 1.57 ± 0.19 S/m; electrical conductivity (m1 = 0.4457): 1.51 ± 0.18 S/m; electrical conductivity (m1 = 0.4527): 1.6 ± 0.2 S/m; electrical conductivity (m1 = 0.4539): 1.53 ± 0.18 S/m; electrical conductivity (m1 = 0.4617): 1.56 ± 0.19 S/m; electrical conductivity (m1 = 0.4692): 1.58 ± 0.19 S/m; electrical conductivity (m1 = 0.4759): 1.59 ± 0.19 S/m
